Columns and labels:
blackgrass = experiment: Test B pre/postemergence blackgrass; format: in vivo, Alopecurus myosuroides
In short: (§1)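 Herbicidal effect was estimated by eye on a ten-point control scale after plants spent twelve to sixteen days in a greenhouse following soil or foliar treatment. Foliar sprays targeted plants at one to four leaves; all doses were formulated in a non-phytotoxic solvent with surfactant.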

purple nutsedge = experiment: Test B pre/postemergence purple nutsedge; format: in vivo, Cyperus rotundus
In short: as §1

wild oat = experiment: Test B pre/postemergence wild oat; format: in vivo, Avena fatua; details: for Plant response rating, Wild oats: Rate 250 g/ha
In short: as §1

giant foxtail = experiment: Test B pre/postemergence giant foxtail; format: in vivo, Setaria faberii
In short: as §1

morningglory = experiment: Test B pre/postemergence morningglory; format: in vivo, Ipomoea hederacea
In short: as §1

bedstraw = experiment: Test B pre/postemergence bedstraw; format: in vivo, Galium aparine
In short: as §1

pigweed = experiment: Test B pre/postemergence pigweed; format: in vivo, Amaranthus retroflexus
In short: as §1

surinam grass = experiment: Test B pre/postemergence surinam grass; format: in vivo, Brachiaria decumbens
In short: as §1

cocklebur = experiment: Test B pre/postemergence cocklebur; format: in vivo, Xanthium strumarium
In short: as §1

bamyardgrass = experiment: Test B flood test barnyardgrass; format: in vivo, Echinochloa crus-galli
In short: (§2)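 Plants were grown to the 2-leaf stage before treatment with test chemical, then held in a greenhouse for twelve to sixteen days. Injury was visually rated against untreated controls on a 0–10 scale, where 0 is no effect and 10 is complete control.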

wheat = experiment: Test B pre/postemergence wheat; format: in vivo, Triticum aestivum; details: for Plant response rating, Wheat: Rate 250 g/ha
In short: as §1

rape = experiment: Test B pre/postemergence rape; format: in vivo, Brassica napus
In short: as §1

sugar beet = experiment: Test B pre/postemergence sugar beet; format: in vivo, Beta vulgaris; details: for Plant response rating, Sugarbeets: Rate 250 g/ha
In short: as §1

duck salad = experiment: Test B flood test duck salad; format: in vivo, Heteranthera limosa
In short: as §2

soybean = experiment: Test B pre/postemergence soybean; format: in vivo, Glycine max
In short: as §1

smallflower flatsedge = experiment: Test B flood test smallflower flatsedge; format: in vivo, Cyperus difformis
In short: as §2

[1] = Postemergence, Rate 125 g/ha, scale of 0 to 10 where 0 is no effect and 10 is complete control
[2] = Postemergence, Rate 250 g/ha, scale 0 to 10, 0 no effect, 10 complete control
[3] = Preemergence, Rate 62 g/ha, scale 0 to 10 (0 no effect, 10 complete control)
[4] = Preemergence, Rate 125 g/ha, scale 0 to 10 (0 no effect, 10 complete control)
[5] = Preemergence, Rate 250 g/ha, scale of 0 to 10 where 0 is no effect and 10 is complete control
[6] = Preemergence, Rate 500 g/ha, scale 0 to 10 (0 no effect, 10 complete control)
[7] = Rate 62 g/ha, Postemergence, scale of 0 to 10 where 0 is no effect and 10 is complete control
[8] = Rate 500 g/ha, Postemergence, scale 0 to 10, 0 no effect, 10 complete control
[9] = Preemergence, Rate 125 g/ha, 0 is no effect, 10 is complete control
[10] = Preemergence, scale of 0 to 10 where 0 is no effect and 10 is complete control
[11] = Postemergence, scale 0 to 10, 0 is no effect, 10 is complete control
[12] = Postemergence, Rate 62 g/ha, scale 0 to 10, 0 is no effect, 10 is complete control
[13] = Rate 125 g/ha, Postemergence, scale 0 to 10, 0 no effect, 10 complete control
[14] = Rate 250 g/ha, Postemergence, scale 0 to 10, 0 is no effect, 10 is complete control
[15] = Rate 500 g/ha, listed under Postemergence (flood test species), scale 0 to 10, 0 no effect, 10 complete control
[16] = flood test, listed under Postemergence, Rate 250 g/ha, scale 0 to 10, 0 no effect, 10 complete control
[17] = Postemergence (flood test species), Rate 125 g/ha, scale of 0 to 10 where 0 is no effect and 10 is complete control
[18] = Rate 62 g/ha, Postemergence section, flood test species, scale of 0 to 10 where 0 is no effect and 10 is complete control

CC(C)N(C(=O)n1oc(=O)n(C2CCCCC2)c1=O)c1ccc(F)cc1F [Compound 115]
3: Morningglory plant response rating (morningglory; [1]) | Morningglory plant response rating (morningglory; [7]) | Sugarbeets plant response rating (sugar beet; [1]) | Plant response rating, Sugarbeets (sugar beet; [11]) | Sugarbeets plant response rating (sugar beet; [8])
10: Giant foxtail plant response rating (giant foxtail; [6]) | B. signalgrass plant response rating (surinam grass; [6])
8: Redroot pigweed plant response rating (pigweed; [6]) | B. signalgrass plant response rating (surinam grass; Rate 500 g/ha, Postemergence, scale of 0 to 10 where 0 is no effect and 10 is complete control)
0: Blackgrass plant response rating (blackgrass; [3]) | Plant response rating, Blackgrass (blackgrass; [4]) | Plant response rating, Blackgrass (blackgrass; [5]) | Nutsedge plant response rating (purple nutsedge; [1]) | Nutsedge plant response rating (purple nutsedge; [2]) | Nutsedge plant response rating (purple nutsedge; [3]) | Plant response rating, Nutsedge (purple nutsedge; [4]) | Plant response rating, Nutsedge (purple nutsedge; [5]) | Nutsedge plant response rating (purple nutsedge; [6]) | Nutsedge plant response rating (purple nutsedge; [7]) | Nutsedge plant response rating (purple nutsedge; [8]) | Wild oats plant response rating (wild oat; [1]) | Wild oats plant response rating (wild oat; [3]) | Wild oats plant response rating (0 to 10 scale) (wild oat; [9]) | Plant response rating, Wild oats (wild oat; [10]) | Wild oats plant response rating (wild oat; [7]) | Plant response rating, Wild oats (wild oat; [11]) | Wild oats plant response rating (wild oat; [8]) | Giant foxtail plant response rating (giant foxtail; [7]) | Morningglory plant response rating (morningglory; [3]) | Plant response rating, Morningglory (morningglory; [4]) | Plant response rating, Morningglory (morningglory; [5]) | Morningglory plant response rating (morningglory; [6]) | Bedstraw plant response rating (bedstraw; [12]) | Bedstraw plant response rating (bedstraw; [3]) | Plant response rating, Bedstraw (bedstraw; [4]) | Plant response rating, Bedstraw (bedstraw; [5]) | Bedstraw plant response rating (bedstraw; [6]) | Bedstraw plant response rating (bedstraw; [13]) | Redroot pigweed plant response rating (pigweed; [1]) | Redroot pigweed plant response rating (pigweed; [7]) | Plant response rating, Redroot pigweed (pigweed; [14]) | B. signalgrass plant response rating (surinam grass; [12]) | B. signalgrass plant response rating (surinam grass; [2]) | B. signalgrass plant response rating (surinam grass; [13]) | Cocklebur plant response rating (cocklebur; [1]) | Cocklebur plant response rating (cocklebur; [3]) | Plant response rating, Cocklebur (cocklebur; [4]) | Plant response rating, Cocklebur (cocklebur; [5]) | Cocklebur plant response rating (cocklebur; [6]) | Cocklebur plant response rating (cocklebur; [7]) | Barnyardgrass plant response rating (bamyardgrass; [12]) | Barnyardgrass plant response rating (bamyardgrass; Rate 125 g/ha, Postemergence section (flood test species), scale 0 to 10, 0 no effect, 10 complete control) | Barnyardgrass plant response rating (bamyardgrass; [15]) | Barnyardgrass plant response rating (bamyardgrass; [16]) | Wheat plant response rating (wheat; [1]) | Wheat plant response rating (wheat; [3]) | Wheat plant response rating (0 to 10 scale) (wheat; [9]) | Plant response rating, Wheat (wheat; [10]) | Wheat plant response rating (wheat; [6]) | Wheat plant response rating (wheat; [7]) | Plant response rating, Wheat (wheat; [11]) | Wheat plant response rating (wheat; [8]) | Rape plant response rating (rape; [1]) | Rape plant response rating (rape; [2]) | Rape plant response rating (rape; [3]) | Plant response rating, Rape (rape; [4]) | Plant response rating, Rape (rape; [5]) | Rape plant response rating (rape; [7]) | Rape plant response rating (rape; [8]) | Sugarbeets plant response rating (sugar beet; [3]) | Sugarbeets plant response rating (0 to 10 scale) (sugar beet; [9]) | Plant response rating, Sugarbeets (sugar beet; [10]) | Ducksalad plant response rating (duck salad; [17]) | Ducksalad plant response rating (duck salad; [18]) | Ducksalad plant response rating (duck salad; [15]) | Ducksalad plant response rating (duck salad; [16]) | Soybean plant response rating (soybean; [3]) | Plant response rating, Soybean (soybean; [4]) | Plant response rating, Soybean (soybean; [5]) | Soybean plant response rating (soybean; [6]) | S. Flatsedge plant response rating (smallflower flatsedge; [17]) | S. Flatsedge plant response rating (smallflower flatsedge; [18]) | Plant response rating, S. Flatsedge (smallflower flatsedge; Rate 250 g/ha, Postemergence (flood test), scale 0 to 10, 0 is no effect, 10 is complete control) | S. Flatsedge plant response rating (smallflower flatsedge; [15])
6: Blackgrass plant response rating (blackgrass; [2]) | Blackgrass plant response rating (blackgrass; [6]) | Morningglory plant response rating (morningglory; [2]) | Morningglory plant response rating (morningglory; [8]) | Plant response rating, Redroot pigweed (pigweed; [5])
7: Blackgrass plant response rating (blackgrass; [8])
9: Giant foxtail plant response rating (giant foxtail; [3]) | Plant response rating, Giant foxtail (giant foxtail; [4]) | Plant response rating, Giant foxtail (giant foxtail; [5]) | Giant foxtail plant response rating (giant foxtail; [8])
2: B. signalgrass plant response rating (surinam grass; [3]) | Plant response rating, B. signalgrass (surinam grass; [4]) | Cocklebur plant response rating (cocklebur; [8]) | Sugarbeets plant response rating (sugar beet; [7])
4: Blackgrass plant response rating (blackgrass; [1]) | Blackgrass plant response rating (blackgrass; [7]) | Wild oats plant response rating (wild oat; [6]) | Giant foxtail plant response rating (giant foxtail; [1]) | Bedstraw plant response rating (bedstraw; [2]) | Redroot pigweed plant response rating (pigweed; [8]) | Plant response rating, B. signalgrass (surinam grass; [5]) | Plant response rating, Soybean (soybean; [14]) | Soybean plant response rating (soybean; [8])
1: Cocklebur plant response rating (cocklebur; [2]) | Soybean plant response rating (soybean; [1]) | Soybean plant response rating (soybean; [7])
5: Giant foxtail plant response rating (giant foxtail; [2]) | Redroot pigweed plant response rating (pigweed; [3]) | Plant response rating, Redroot pigweed (pigweed; [4]) | Rape plant response rating (rape; [6]) | Sugarbeets plant response rating (sugar beet; [6])

Reference: patent US6737383B1, “Herbicidal oxadiazolidines” (priority 1999, dated 2004)
